# Measured values: patent EP4650353A1 (Shanghai Institute of Materia Medica, Chinese Academy of …, priority 2023, dated 2024)
# What was measured:
# hGLP-1R KI mice = experiment: Diet inhibition by Tris salts (food intake after single oral dose); format: in vivo; conditions: 30 mg/kg; for duration of the food intake reducing effect / food intake: Tris salt, single oral administration
# Protocol: Mouse model: hGLP-1R KI mice, 8 female mice per experimental group.
# Experimental procedure: Mice were separated into cages and fasted 6 hours in advance, and were given drugs by oral gavage at the beginning of the night cycle (7:00 PM). The weight of food in each cage was weighed at 0, 2.5, 5, 12 (7:00 AM at the beginning of the day cycle), and 24 hours after drug administration to calculate the food intake of mice.
# human GLP-1 receptor = biological target: T1, human GLP-1 receptor (Homo sapiens, UniProt P43220); experiment: GLP-1 receptor-mediated agonist activity: cAMP level in hGLP-1R/HEK293 cell line (HTRF); format: cell-based; conditions: cAMP levels in hGLP-1R/HEK293 cell line; Table 1; read-out: determined EC50
# T1 construct: HA (N); expressed in transfected cells
# T1 sequence (P43220 24-463): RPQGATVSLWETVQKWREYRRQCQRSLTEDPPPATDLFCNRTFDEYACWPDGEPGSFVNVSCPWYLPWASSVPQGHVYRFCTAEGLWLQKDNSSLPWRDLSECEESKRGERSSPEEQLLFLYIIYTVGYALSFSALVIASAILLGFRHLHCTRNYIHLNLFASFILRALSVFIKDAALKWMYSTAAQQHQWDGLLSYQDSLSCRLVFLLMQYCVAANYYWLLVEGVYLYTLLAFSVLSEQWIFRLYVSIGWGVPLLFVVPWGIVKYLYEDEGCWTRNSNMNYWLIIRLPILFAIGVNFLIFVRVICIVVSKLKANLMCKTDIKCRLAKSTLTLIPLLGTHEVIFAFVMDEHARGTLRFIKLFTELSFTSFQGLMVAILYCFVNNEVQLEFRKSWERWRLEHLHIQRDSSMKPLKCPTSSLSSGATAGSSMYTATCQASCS
# β-arrestin 1 = experiment: NanoBiT recruitment of β-arrestin 1 by GLP-1R in HEK293 cells; format: cell-based; conditions: Homo sapiens, read-out: maximum agonistic effect (Emax) recruiting β-arrestin 1;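 further: 100% equals the maximal response of endogenous GLP-1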
# From the text: (§1) The Promega NanoBiT protein-protein reaction system was used to detect the recruitment of β-arrestin 1 and β-arrestin 2 by GLP-1R. The NanoBit Protein-Protein Reaction System was a dual-subunit system based on NanoLuc luciferase that could be used to detect protein-protein interactions in cells. The LgBiT (17.6 kDa) and SmBiT (11 amino acids) subunits were fused to the proteins of interest, respectively. When the proteins of interest interact, the two subunits came into close proximity to form an enzyme with catalytic activity, which could catalyze the luminescence of the luciferase substrate. Firstly, the human GLP-1R gene was connected to the N-terminus of LgBit, the β-arrestin 1/2 gene was cloned to the C-terminus of SmBit, and the fusion protein was introduced into the pcDNA3.0 vector to construct plasmids expressing hGLP-1R-LgBit and SmBit-β-arrestin 1/2 fusion proteins. The hGLP-1R-LgBit plasmid and SmBit-β-arrestin 1 (or SmBit-β-arrestin 2) plasmid were co-transfected into HEK293 cells at a ratio of 1 µg plasmid/2×10^6 cells. Immediately after transfection, the cells were added to a 96-well white-bottom plate at a density of 4×10^5 cells/well, and the cells were cultured in an incubator (37°C, 5% CO2) for 20 hours.
# (§2) After 20 hours, the liquid in the wells was discarded, 40 µL of fresh culture medium (DMEM+0.2% BSA, m/v) was added first, and then 10 µL of Nano-Glo Live Cell detection solution (Promega, #N2011) was added, and then the cells were placed in an incubator and incubated for 10 minutes. The compound was dissolved in DMSO and prepared into a storage solution with a concentration of 10mM. The experiment started with a concentration of 100µM. […] After the cells were incubated for 10 min, 25 µL of culture medium containing the compound was added to each well and incubated at room temperature for 5 min. The fluorescence signal was then detected using an Envision 2104 multi-function microplate reader (PerkinElmer). All samples were tested in triplicate, and the fluorescence signal ratio and the corresponding compound concentration were analyzed using GraphPad Prism 8 software.
# β-arrestin 2 = experiment: NanoBiT recruitment of β-arrestin 2 by GLP-1R in HEK293 cells; format: cell-based; conditions: Homo sapiens, read-out: maximum agonistic effect (Emax) recruiting β-arrestin 2;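 further: 100% equals the maximal response of endogenous GLP-1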
# From the text: as §1, §2
# [1] = test system: hGLP-1 receptor knock-in mice; experiment: Long-term administration in high-fat diet fed hGLP-1R mice for weight loss; format: in vivo; conditions: ammonium salt
# Protocol: (§3) Genetically engineered hGLP-1R gene knock-in mice, male, 8-10 weeks old, specific pathogen free (SPF) grade, were purchased from Biocytogen Jiangsu Gene Biotechnology Co., Ltd. All experimental animals were housed in the SPF-level environment of the National Compound Sample Library animal room, with a temperature of 24±2°C, a relative humidity of 40-60%RH, an air cleanliness level of 7, and a day and night light-dark cycle of 12h/12h; they were continuously supplied with cobalt-60 radiation-sterilized complete mouse granular feed (Shanghai Shilin Biotechnology Co., Ltd., maintenance feed for rats and mice), and were allowed to drink tap water (sterilized with high-pressure steam) without interruption, and were allowed to drink it freely. The cages were transparent polyetherimide cages (Suzhou Fengshi Experimental Animal Equipment Co., Ltd., CP-8 mouse cages), and the bedding was corn cobs (Tezhou Gumei Agricultural Technology Co., Ltd., used after high-pressure steam sterilization). There were 3-5 animals in each cage, and the cage card indicated the IACUC approval number, experiment number, experiment start time, person in charge, experimenter, animal source, group and animal number. The purchased mice were adapted to this breeding environment for at least 7 days before being used in experiments. The animal use methods in this study were approved by the IACUC Committee of the Shanghai Institute of Materia Medica.
# The mice were weighed every day, and 24 hours after the last administration, the body fat and muscle content of the mice were detected using a Bruker desktop nuclear magnetic resonance spectrometer (model LF90II). • (4) Experimental results
# hERG potassium channels = hERG potassium channels (Homo sapiens, UniProt Q12809); experiment: cell-based
# Sequence of hERG potassium channels (Q12809 whole entry): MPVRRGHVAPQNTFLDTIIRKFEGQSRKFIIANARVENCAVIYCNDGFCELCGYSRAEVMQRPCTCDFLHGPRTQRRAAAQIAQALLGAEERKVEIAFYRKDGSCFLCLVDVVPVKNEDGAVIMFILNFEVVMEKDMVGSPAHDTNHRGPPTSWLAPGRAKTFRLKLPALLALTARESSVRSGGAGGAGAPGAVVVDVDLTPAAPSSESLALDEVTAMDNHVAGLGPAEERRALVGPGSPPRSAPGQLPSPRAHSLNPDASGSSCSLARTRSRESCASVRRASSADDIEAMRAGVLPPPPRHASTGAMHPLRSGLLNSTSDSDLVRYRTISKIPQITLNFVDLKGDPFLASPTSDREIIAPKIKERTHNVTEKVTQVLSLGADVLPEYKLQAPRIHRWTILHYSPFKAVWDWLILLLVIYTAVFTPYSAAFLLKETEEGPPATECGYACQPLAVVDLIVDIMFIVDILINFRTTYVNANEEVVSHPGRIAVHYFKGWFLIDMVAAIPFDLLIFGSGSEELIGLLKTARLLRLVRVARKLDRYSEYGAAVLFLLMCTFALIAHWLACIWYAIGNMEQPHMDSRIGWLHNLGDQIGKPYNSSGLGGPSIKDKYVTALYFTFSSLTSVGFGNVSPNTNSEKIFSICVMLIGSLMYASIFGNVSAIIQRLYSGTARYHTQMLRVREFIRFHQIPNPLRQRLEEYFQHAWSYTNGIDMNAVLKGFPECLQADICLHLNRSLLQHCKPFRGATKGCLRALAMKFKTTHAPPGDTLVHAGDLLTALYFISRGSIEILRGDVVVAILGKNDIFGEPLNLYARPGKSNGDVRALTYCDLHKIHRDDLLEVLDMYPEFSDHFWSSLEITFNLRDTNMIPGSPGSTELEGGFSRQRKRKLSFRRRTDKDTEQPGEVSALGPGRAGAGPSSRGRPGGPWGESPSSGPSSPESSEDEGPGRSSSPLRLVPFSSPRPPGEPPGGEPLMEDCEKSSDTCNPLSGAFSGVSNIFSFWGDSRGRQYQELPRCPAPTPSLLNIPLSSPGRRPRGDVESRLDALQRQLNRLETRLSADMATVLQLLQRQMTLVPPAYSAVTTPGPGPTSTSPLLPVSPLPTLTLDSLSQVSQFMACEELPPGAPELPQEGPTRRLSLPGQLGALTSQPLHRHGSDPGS
# Protocol: CHO cells expressing hERG protein were cultured in 175 cm^2 culture flasks. When the cell density grew to 60-80%, the culture medium was removed, the cells were washed once with 7 mL PBS, and then 3 mL Detachin was added for digestion. After digestion was complete, 7 mL of culture medium was added to neutralize, then centrifuged. The supernatant was aspirated, and 5 mL of culture medium was added to resuspend to ensure that the cell density is 2-5×10^6/mL.
# Both the single-cell high-impedance sealing and whole-cell mode formation processes were automatically completed by the Qpatch instrument. After obtaining the whole-cell recording mode, the cell was clamped at -80 mV. Before a 5-second +20 mV depolarizing stimulus was given, a 50-ms -50 mV pre-voltage was given, and then the cell was repolarized to -50 mV for 5 seconds and then returned to -80 mV. This voltage stimulation was applied every 15 seconds. After recording for 2 minutes, the extracellular solution was recorded for 2 minutes. Then the drug administration process began. The compound concentration started from the lowest tested concentration. Each tested concentration was given for 2 minutes. […] At least three cells were tested for each concentration (n≥3).
# The compound stock solution was diluted with extracellular fluid, 5 µL of 20 mM compound stock solution was added to 2495 µL extracellular fluid, diluted 500 times to 40 µM, and then serially diluted 3 times in extracellular fluid containing 0.2% DMSO (v/v) to obtain the final concentration to be tested.
# The experimental data were analyzed by XLFit software.
# [2] = test system: hGLP-1 receptor knock-in mice; experiment: Oral glucose tolerance test in mice; format: in vivo; conditions: for effect compared with positive control PF-06882961 ammonium salt at the same dose: oral glucose tolerance test; for blood glucose area under the curve / blood glucose concentration: orally administered at 1 mg/kg, vs blank control; for blood glucose area under the curve: AUC(0-90)
# Protocol: as §3
# 60 minutes after oral administration, blood glucose was measured again as zero-point blood glucose. Then, 2 g/kg of sugar was orally administered, and blood glucose was measured using a blood glucose meter 15 minutes, 30 minutes, 60 minutes, and 90 minutes after sugar administration. In order to explore the effect of long-term administration on glucose tolerance, 2 g/kg of sugar was orally administered again […] the administration of the compound, and the blood glucose changes were measured at 180 min, 195 min, 210 min, 240 min, and 270 min.
# [3] = test system: hGLP-1 receptor knock-in mice; experiment: Mouse food intake suppression experiment (compound 19); format: in vivo; conditions: 30 mg/kg oral
# Protocol: as §3, with “The animal use methods in this study were approved by the IACUC Committee of the Shanghai Institute of Materia Medica.” left out
structure (smiles),measurement,setting,value
"[2H]C([2H])([2H])C([2H])([2H])Oc1cc(C(=O)O)cc2c1nc(CN1CCN(c3cccc4c3O[C@@](C)(c3ccc(C(F)(F)F)cc3F)O4)C=N1)n2C[C@@H]1CCO1 [Compound 82-1, 4-(ethoxy-d5)-2-((4-((S)-2-(2-fluoro-4-(trifluoromethyl)phenyl)-2-methylbenzo[d][1,3]dioxol-4-yl)-5,6-dihydro-1,2,4-triazin-1(4H)-yl)methyl)-1-(((S)-oxetan-2-yl)methyl)-1H-benzo[d]imidazole-6-carboxylic acid]",duration of the food intake reducing effect,hGLP-1R KI mice,24 h
same,food intake,hGLP-1R KI mice,significantly reduce the food intake
same,EC50,human GLP-1 receptor,5.1 pM
"CCCOc1cc(C(=O)O)cc2c1nc(CN1CCC(c3cccc(OCc4ccc(C#N)cc4F)n3)CC1)n2C[C@@H]1CCO1 [Compound 3, (S)-2-((4-(6-((4-cyano-2-fluorobenzyl)oxy)pyridin-2-yl)piperidin-1-yl)methyl)-1-(oxetan-2-ylmethyl)-4-propoxy-1H-benzo[d]imidazole-6-carboxylic acid]",EC50,human GLP-1 receptor,6.4 pM
same,Emax,β-arrestin 1,30 to 50%
same,Emax,β-arrestin 2,30 to 50%
"O=C(O)c1cc(F)c2nc(CN3CCN(c4cccc(OCc5ccc(Cl)cc5F)n4)C=N3)n(C[C@@H]3CCO3)c2c1 [CN2022114139828 , Compound 2, reference compound]",Emax,β-arrestin 1,75 to 80%
same,Emax,β-arrestin 2,75 to 80%
"CCOc1cc(C(=O)O)cc2c1nc(CN1CCN(c3cccc4c3O[C@@](C)(c3ccc(C(F)(F)F)cc3F)O4)C=N1)n2C[C@@H]1CCO1 [Compound 81-1, 4-ethoxy-2-((4-((S)-2-(2-fluoro-4-(trifluoromethyl)phenyl)-2-methylbenzo[d][1,3]dioxol-4-yl)-5,6-dihydro-1,2,4-triazin-1(4H)-yl)methyl)-1-(((S)-oxetan-2-yl)methyl)-1H-benzo[d]imidazole-6-carboxylic acid]",inhibitory effect on eating compared with Tris salt of positive control PF-06882961 at the same dose,"hGLP-1R KI mice; at 5, 12 and 24 hours",significantly better than
same,duration of the food intake reducing effect,hGLP-1R KI mice,24 h
same,food intake,hGLP-1R KI mice,significantly reduce the food intake
same,EC50,human GLP-1 receptor,1.8 pM
"N#Cc1ccc(COc2cccc(C3CCN(Cc4nc5ccc(C(=O)O)cc5n4C[C@@H]4CCO4)CC3)n2)c(F)c1 [PF-06882961, reference compound]",weight gain of HFD-fed mice,"[1]; 30 mg/kg by gavage once a day, 15 days",effectively inhibit the weight gain
same,reduce body weight compared with the blank control group,"[1]; 30 mg/kg once a day, after 15 days of administration, HFD",10.2%
same,Emax,β-arrestin 1,75 to 80%
same,Emax,β-arrestin 2,75 to 80%
"COc1cc(C(=O)O)cc2c1nc(CN1CCC(c3cccc(OCc4ccc(Cl)cc4F)n3)CC1)n2C[C@@H]1CCO1 [Compound 19, (S)-2-((4-(6-((4-chloro-2-fluorobenzyl)oxy)pyridin-2-yl)piperidin-1-yl)methyl)-4-methoxy-1-(oxetan-2-ylmethyl)-1H-benzo[d]imidazole-6-carboxylic acid]",EC50,human GLP-1 receptor,2.6 pM
same,IC50,hERG potassium channels,12.5 µM
same,effect compared with positive control PF-06882961 ammonium salt at the same dose,[2]; 1 mg/kg oral,better than the positive control PF-06882961 ammonium salt
same,lowering blood sugar in long-term oral glucose tolerance test,"[2]; ammonium salt, 1 mg/kg oral, second sugar load 240 min after administration, AUC(180-270), vs PF-06882961 ammonium salt",more significant effect in lowering blood sugar
same,blood glucose area under the curve,[2]; ammonium salt,significantly reduce
same,blood glucose concentration,[2]; ammonium salt,significantly reduce
same,effect on food intake compared with positive control PF-06882961 ammonium salt at the same dose,[3],better than the positive control PF-06882961 ammonium salt
same,food intake,"[3]; ammonium salt, within 0 to 12 hours after administration",significantly inhibit the food intake
"COc1cc(C#N)ccc1COc1cccc(C2CCN(Cc3nc4c(OC)cc(C(=O)O)cc4n3C[C@@H]3CCO3)CC2)n1 [Compound 4, (S)-2-((4-(6-((4-cyano-2-methoxybenzyl)oxy)pyridin-2-yl)piperidin-1-yl)methyl)-4-methoxy-1-(oxetan-2-ylmethyl)-1H-benzo[d]imidazole-6-carboxylic acid]",Emax,β-arrestin 1,30 to 50%
same,Emax,β-arrestin 2,30 to 50%
"COc1cc(Cl)ccc1COc1cccc(N2C=NN(Cc3nc4c(OC)cc(C(=O)O)cc4n3C[C@@H]3CCO3)CC2)n1 [Compound 20, (S)-2-((4-(6-((4-chloro-2-methoxybenzyl)oxy)pyridin-2-yl)-5,6-dihydro-1,2,4-triazin-1(4H)-yl)methyl)-4-methoxy-1-(oxetan-2-ylmethyl)-1H-benzo[d]imidazole-6-carboxylic acid]",Emax,β-arrestin 1,30 to 50%
same,IC50,hERG potassium channels,> 40 µM
same,effect compared with positive control PF-06882961 ammonium salt at the same dose,[2]; 1 mg/kg oral,better than the positive control PF-06882961 ammonium salt
same,blood glucose area under the curve,[2]; ammonium salt,significantly reduce
same,blood glucose concentration,[2]; ammonium salt,significantly reduce
same,Emax,β-arrestin 2,30 to 50%
